From publication PMC11371738, “Development of an ic-CLEIA for precise detection of 3-CQA in herbs and patent medicines: ensuring quality control and therapeutic efficacy” (Frontiers in Nutrition, 2024)
≈ marks a conversion by molar mass, not a printed value.

Experiments:
anti-3-CQA mAb [1] = experiment: mAb-based indirect competitive chemiluminescence enzyme immunoassay (ic-CLEIA); format: binding, mouse; details: for CR (cross-reactivity) = IC50 3-CQA / IC50 analogue x 100%: ic-CLEIA; for IC50: 3-CQA-OVA coating 2 μg/mL, mAb 1:8000, deionized water pH 7.0
Procedure: To establish the optimal conditions for the ic-CLEIA, a checkerboard titration was employed. The protocols of the ic-CLEIA were performed as previously ([20]). A gradient concentration of 3-CQA-OVA (0.125, 0.5, 2.0, and 8.0 μg/mL; 100 μL/well) was diluted in PBS and added to a 96-well white microliter plate (Costar Inc., Cambridge, MA, United States), followed by incubation at 4°C overnight. After washing each well three times with PBST (PBS solution containing 0.05% Tween-20, pH 7.4), the plates were blocked with 5% skimmed milk powder (SMP) (Sigma, St Louis, MO, United States) in PBS (200 μL/well) at 37°C for 2 h. Subsequently, different concentrations of mAb (1:2000, 1:4000, 1:8000, 1:16000, 1:32000, 1:64000, and 1:128000; 100 μL/well) were added to different wells, followed by incubation at 4°C for 50 min. For ic-CLEIA standard curve, 3-CQA standard solutions in PBS (0.01, 0.025, 0.05, 0.1, 0.25, 0.5, 1, 2.5, 5, 10, 25, 50, and 100 ng/mL; 50 μL) and the diluted antibody in PBS (50 μL) were added to each well and incubated at 4°C for 50 min. After a washing step, goat anti-mouse IgG-horse radish peroxidase (HRP) (SinoBiological, Beijing, China) dissolved in PBS supplemented with 2% SMP was added at a 1:5000 dilution (100 μL/well), and the plates were incubated at 37°C for 50 min. Afterward, 100 μL of chemiluminescent substrate solution (Heliosense Biotechnology, Xiamen, China) was pipetted into each well, and the emitted photons were immediately read at 595 nm using a Tecan Infinite F200 reader (Mannedorf, Switzerland). To investigate the effects of different factors on the overall reaction system, different pH (6.5, 7.0, 7.4, and 8.0), methanol aqueous solution (5, 10, 30, and 50%; v/v), Tween-20 (0.01, 0.02, 0.04, 0.06, and 0.08%, v/v), sodium chloride solution (0.1 M, 0.2 M, and 0.4 M) were prepared and tested.
All incubation steps were performed in the dark throughout the procedure. The competitive inhibition curves for 3-CQA were plotted using GraphPad Prism 8.0 (GraphPad Inc., San Diego, CA).
To evaluate CR, the structural analogs of 3-CQA including 4-CQA, 5-CQA, 3,5-dicaffeoylquinic acid, 4,5-dicaffeoylquinic acid, 3,4-dicaffeoylquinic acid, and tea polyphenols (DESITE Biotech, Chengdu, China) were used in place of 3-CQA within the ic-CLEIA assay. The respective CR values of these analogs were determined using the following equation: […]

anti-3-CQA mAb [2] = experiment: indirect competitive ELISA (ic-ELISA); format: binding, mouse; details: same conditions as ic-CLEIA
Procedure: The protocols of ic-ELISA are similar to the ic-CLEIA, 3-CQA-OVA antigen, anti-3-CQA mAb, and goat anti-mouse IgG-HRP were successively incubated under optimized conditions. 3-CQA standard solutions in PBS (1, 2, 4, 8, 16, 32, 64, 128, 256, and 512 ng/mL; 50 μL) and the diluted antibody in PBS (50 μL) were added to each well and incubated at 4°C for 50 min. Subsequent to four washes, 3, 3′, 5, 5′-tetramethylbenzidine (TMB, 100 μL/well) solution was added and incubated at 37°C for 10 min. The reaction was then terminated by adding 2 M H2SO4 (50 μL/well), and the absorbance was measured at the wavelength of 450 nm (OD450). The competitive inhibition curve was plotted using Lg[10*C3-CQA (ng/mL)] as the abscissa and B/B0 (B0 is the OD450 value without standard, and B is the OD450 value with standard present) as the ordinate.

Compound | CR (cross-reactivity) = IC50 3-CQA / IC50 analogue x 100% (anti-3-CQA mAb [1]) | IC50 (anti-3-CQA mAb [1]; optimized conditions) | IC20 (lower end of linear range) (anti-3-CQA mAb [1]; optimized conditions) | IC80 (upper end of linear range) (anti-3-CQA mAb [1]; optimized conditions) | calibration / linear / detection range (IC20-IC80) (anti-3-CQA mAb [1]; optimized conditions) | limit of detection (LOD, IC10) (anti-3-CQA mAb [1]; optimized conditions) | IC50 (anti-3-CQA mAb [2]) | LOD (anti-3-CQA mAb [2]) | linear / detection range (anti-3-CQA mAb [2])
O=C(/C=C/c1ccc(O)c(O)c1)OC1CC(O)(C(=O)O)CC(O)C1OC(=O)/C=C/c1ccc(O)c(O)c1 (stereo not shown) [4,5-dicaffeoylquinic acid] | 0.31% | 0.97156 µg/mL | – | – | – | – | – | – | –
O=C(/C=C/c1ccc(O)c(O)c1)OC1C(O)CC(O)(C(=O)O)CC1O (stereo not shown) [4-CQA, 4-caffeoylquinic acid] | 0.62% | 0.48062 µg/mL | – | – | – | – | – | – | –
O=C(/C=C/c1ccc(O)c(O)c1)OC1CC(O)(C(=O)O)CC(O)C1OC(=O)/C=C/c1ccc(O)c(O)c1 (stereo not shown) [3,4-dicaffeoylquinic acid] | 2.10% | 0.14173 µg/mL | – | – | – | – | – | – | –
O=C(/C=C/c1ccc(O)c(O)c1)OC1CC(O)(C(=O)O)CC(O)C1O (stereo not shown) [5-CQA, 5-caffeoylquinic acid] | 1.81% | 0.16444 µg/mL | – | – | – | – | – | – | –
O=C(/C=C/c1ccc(O)c(O)c1)OC1CC(O)(C(=O)O)CC(OC(=O)/C=C/c2ccc(O)c(O)c2)C1O (stereo not shown) [3,5-dicaffeoylquinic acid] | 10.71% | 0.02774 µg/mL | – | – | – | – | – | – | –
O=C(C=Cc1ccc(O)c(O)c1)OC1CC(O)(C(=O)O)CC(O)C1O (stereo not shown) [3-CQA, 3-caffeoylquinic acid] | 100.00% | 0.00297 µg/mL | 0.00064 µg/mL | 0.01375 µg/mL | 0.00064 to 0.01375 µg/mL | 0.00039 µg/mL | 0.03606 µg/mL (≈ 0.102 µM) | 6.71 ng/mL | 10.21 to 127.36 ng/mL
